{
  "source": "paper PMC6987128",
  "about": "“Target protein-oriented isolation of Hes1 dimer inhibitors using protein based methods” (Scientific Reports, 2020)",
  "key": {"[1]": {"test_system": "NSCs", "conditions": "cited from earlier work"}, "[2]": {"test_system": "C17.2 mouse neural stem cells", "experiment": "Neural stem cell differentiation assay (Tuj1/GFAP immunofluorescence staining)", "type": "cell-based", "conditions": "C17.2 cells, 100 μM, 6 days, positive control", "from_the_text": "We recently developed another protein-based screening method, the target protein oriented natural products isolation method (TPO-NAPI) using protein beads (Fig. 2B). Agalloside, inohanamine, α-mangostine, BE-14106, isomicromonolactam, staurosporin and linarin were isolated as Hes1 binding compounds using the TPO-NAPI method[15],[17]. Rat Hes1 (1–95) containing basic and helix-loop-helix domains was immobilized because the helix-loop-helix domain is known to be important for Hes1-Hes1 interaction; therefore, utilizing this domain in the beads method would likely be effective for screening Hes1 dimer inhibitors. GST-Hes1 immobilized beads were prepared by mixing freshly prepared GST-Hes1 protein with glutathione Sepharose 4B beads. GST-only beads were prepared as a control. After incubating the beads with plant MeOH extracts at 4 °C for 2 h, bound compounds were eluted by adding EtOH and heating at 100 °C for 3 min, then the eluted compounds were analyzed by HPLC. […] The MeOH extract (64.6 g) of Terminalia chebula bark was partitioned with hexane, EtOAc and BuOH to obtain hexane (1.5 g), EtOAc (3.6 g), BuOH (42.6 g), and aqueous (20.5 g) soluble fractions. The EtOAc fraction contained the target peak and was subjected to silica gel column chromatography to give eight fractions (1A-H). Fraction 1D contained the target peak and was separated by ODS column chromatography and reverse-phase HPLC to give compound 11 (0.4 mg). Compound 11 was identified as 4-O-(4″-O-galloyl-α-L-rhamnopyranosyl)ellagic acid by comparison of its NMR data with reported spectral data[37]. […] This is the strongest Hes1 dimer inhibitor reported to date. The ability of 11 to accelerate the differentiation of C17.2 mouse neural stem cells was evaluated (Fig. 5). C17.2 cells (2 × 10^5 cells/mL) were seeded in a poly-L-lysine-coated 24 well plates and incubated for 24 h, then the cells were treated with DMSO (control), 100 μM valproic acid (VPA), 5 μM retinoic acid (RA) (positive controls) or 11 (1 or 5 μM) for 6 days. A confocal microscope was used to obtain images of differentiated neural cells after immunostaining class III β-tubulin (Tuj1) in neurons, and glial fibrillary acidic protein (GFAP) in astrocytes and nuclei (TO-PRO-3). […] In contrast, the control dish containing cells treated with DMSO contained small number of neurons.\nC17.2 cells were cultured in proliferation medium [DMEM (DS Pharma Biomedical Co., Ltd. Osaka, Japan) supplemented with 10% fetal bovine serum (Biowest, Nuaillé, France), 5% horse serum (Gibco, Life Technologies, Tokyo, Japan)]. Neural differentiation of C17.2 cells was initiated by transferring the cells to differentiation medium [Neurobasal Medium (Gibco) supplemented with 2% B-27 without vitamin A (Gibco), 1% antibiotic-antimycotic (Gibco)]. All cultures were maintained in a humidified incubator at 37 °C in 5% CO2/95% air.\nC17.2 cells were dissociated using the proliferation medium 2 × 10^5 cells/mL on cover glass (MATSUNAMI GLASS) coated with poly-L-lysine and fibronectin/laminin. After incubation for 24 h, cells were washed with D-MEM and treated with individual compounds in differentiation medium for 6 days.\nC17.2 cells were fixed with 4% paraformaldehyde in PBS for 20 min at room temperature (r.t.) and washed with 1% BSA in PBS three times. After blocking with 10% BSA in 0.3% Triton X-100 in PBS for 45 min at r.t., fixed cells were incubated with primary antibodies (anti-βIII-Tubulin; Neuronal Class III, Mouse-Mono, 1:400, R&D Systems^TM; anti-GFAP, 1:400, VERITAS) for 12 h at 4 °C. After washing three times with 1% BSA in PBS (500 μL/well), cells were incubated with secondary antibodies (Alexa Fluor® 488 goat anti-mouse IgG (H + L), 1:400, Life Technologies; Alexa Fluor® 555 goat ant-rabbit IgG (H + L), 1:200, Life Technologies) for 1 hr at r.t. in the dark. […]"}},
  "data": [
    {"compound": "CCCC(=O)/C=C/C1=C(O)C(=O)c2cc(O)c(O)cc2C1=O", "note": "[Lindbladione]", "values": [
      {"measurement": "differentiation of NSCs to neurons", "setting": "[1]", "result": "accelerated the differentiation of NSCs to neurons"}
    ]},
    {"compound": "CCCC(CCC)C(=O)O", "note": "[VPA, valproic acid, reference compound]", "values": [
      {"measurement": "number of neurons", "setting": "[2]", "result": "increased"}
    ]},
    {"compound": "COc1ccc(-c2cc(=O)c3c(O[C@@H]4O[C@H](CO[C@@H]5OC[C@@H](O)[C@H](O)[C@H]5O)[C@@H](O)[C@H](O)[C@H]4O)cc(OC)cc3o2)cc1", "note": "[agalloside]", "values": [
      {"measurement": "differentiation of NSCs to neurons", "setting": "[1]", "result": "accelerated the differentiation of NSCs to neurons"}
    ]},
    {"compound": "C/C=C/C=C/C=C/[C@@H]1NCC[C@@H](O)[C@H]1C", "note": "[inohanamine]", "values": [
      {"measurement": "differentiation of NSCs to neurons", "setting": "[1]", "result": "accelerated the differentiation of NSCs to neurons"}
    ]},
    {"compound": "isomicromonolactam", "values": [
      {"measurement": "differentiation of NSCs to neurons", "setting": "[1]", "result": "accelerated the differentiation of NSCs to neurons"}
    ]}
  ]
}
